Patent US12280141B2, “Liquid depot for non-invasive sustained delivery of agents to the eye” (CHIBI, INC., priority 2018, dated 2025)
Where “and” joins values, the source holds several entries; their conditions need not be identical. Equal entries are not always repeated. Entries after “also recorded” stand apart in the source; their conditions may differ. Each block holds one compound with its values, some of them ahead of it.

Key:
[1] = Dexamethasone in eye tissues and fluids after one 25 μL depot instillation; conditions: for concentration at 3 day / concentration at 8 day / concentration at 8 h / concentration at 24 h / concentration at 14 day / concentration at 21 day: female, New Zealand White, rabbit, topical, 25 μL, Dexamethasone; for concentration at 3 day: Day 3; for concentration at 8 day: Day 8; for concentration at 24 h: Hr 24
[2] = Dexamethasone level in anterior chamber after 50 μL depot (GLP study); format: in vivo, New Zealand White (NZW) rabbits; conditions: both sexes, New Zealand White, rabbit, topical
Procedure: In a good laboratory practices (GLP) study, depots of 50 μL were instilled into each eye of New Zealand White (NZW) rabbits (either sex, 3.5-4 kilo), and the anterior chamber tapped subsequently and assayed by LCMS.

[3] = Diclofenac in tear samples after 50 μL liquid depot; format: in vivo, NZW rabbits; conditions: one-time application of 50 μL
Procedure: A formulation of the NSAID diclofenac was prepared by thoroughly mixing 10% diclofenac acid in a 90% liquid depot mixture of 80:20 tocopheryl acetate:Miglyol®. A one-time application of 50 μL of this formulation was instilled into the eyes of NZW rabbits, and then tear samples were collected and analyzed as described herein.

[4] = Vitamin E acetate in rabbit aqueous humor samples; format: in vivo; conditions: days 1, 4, 7, 12; quantification limit 1.0 ng/mL
[5] = single 50 μL instillation
[6] = In vitro release of gatifloxacin from liquid depot, samples Gati-90A to F; format: physicochemical; conditions: for Gatifloxacin cumulative % released, Avg: Avg of 90-A to 90-F
Procedure: The in vitro sustained release study of gatifloxacin was carried out using a Cabone ring (Wilton Brands LLC, Woodridge, Ill. 60517) of 12.7 mm. […] [At each time point, 20 ml from each of the six samples was withdrawn for sampling and replaced with 20 mL saline. The amount of gatifloxacin released was determined by UPLC. The release profile of gatifloxacin-containing liquid depot formulation is shown in Table 15, Table 16, and FIG. 14; gatifloxacin was released for at least 24 hours.

[7] = In vitro release of prednisolone from liquid depot, samples 5A to 5F; format: physicochemical
Procedure: Six samples, 5A to 5F, each weighing at 48.2 mg, 48.5 mg, 48.1 mg, 49 mg, 51.7 mg, and 49.2 mg, respectively (average weight=49.1 mg; SD=1.34; % RSD=2.7) were incubated in 50 ml saline at 40° C. At each time point, 25 ml from each of the six samples was withdrawn for sampling and replaced with 25 ml saline.

[8] = aqueous humor, Aqueous Humor Average (±SD), one 25 μL instillation of 10% dexamethasone depot
[9] = conjunctiva, Conjunctiva Average (±SD), one 25 μL instillation
[10] = cornea, Cornea Average (±SD), one 25 μL instillation
[11] = iris/ciliary body, Iris/Ciliary Body Average (±SD), one 25 μL instillation
[12] = one instillation of the liquid depot

Structure (SMILES): C[C@@H]1C[C@H]2[C@@H]3CCC4=CC(=O)C=C[C@]4(C)[C@@]3(F)[C@@H](O)C[C@]2(C)[C@@]1(O)C(=O)CO [Dexamethasone, dexamethasone]
Dexamethasone, Iris/Ciliary Body Tissue ([1]; Day 14, per eye, one 25 μL instillation): 1.21 ng/g and 2.00 ng/g
Dexamethasone, Iris/Ciliary Body Homog. ([1]; Day 14, per eye, one 25 μL instillation, LOQ 0.2 ng/mL): 0.241 ng/mL and 0.399 ng/mL
Dexamethasone, Aqueous Humor Conc. ([1]; Day 21, per eye, one 25 μL instillation of 10% dexamethasone depot, LOQ 0.5 ng/mL): BLOQ
Dexamethasone, Iris/Ciliary Body Homog. ([1]; Day 21, per eye, one 25 μL instillation, LOQ 0.2 ng/mL): BLOQ
Dexamethasone, Iris/Ciliary Body Tissue ([1]; Hr 8, per eye, one 25 μL instillation): 83.0 ng/g and 86.0 ng/g and 150 ng/g and 113 ng/g and 157 ng/g
Dexamethasone, Iris/Ciliary Body Homog. ([1]; Hr 8, per eye, one 25 μL instillation, LOQ 0.2 ng/mL): 16.6 ng/mL and 17.2 ng/mL and 30.0 ng/mL and 22.5 ng/mL and 31.4 ng/mL
concentration at 3 day [1, 8]: 2.5 ng/mL
concentration at 8 day [1, 8]: 7.53 ng/mL
concentration at 8 h ([1]; aqueous humor, Aqueous Humor Average (±SD), Hr 8, one 25 μL instillation of 10% dexamethasone depot): 44.8 ng/mL
concentration at 24 h [1, 8]: 2.47 ng/mL
concentration at 14 day ([1]; aqueous humor, Aqueous Humor Conc., Day 14, per eye, one 25 μL instillation of 10% dexamethasone depot, LOQ 0.5 ng/mL): 0.677 ng/mL
concentration at 3 day [1, 9]: 372 ng/g
concentration at 8 day [1, 9]: 1630 ng/g
concentration at 14 day ([1]; conjunctiva, Conjunctiva Average (±SD), Day 14, one 25 μL instillation): 53.8 ng/g
concentration at 21 day ([1]; conjunctiva, Conjunctiva Average (±SD), Day 21, one 25 μL instillation): 28.2 ng/g
concentration at 8 h ([1]; conjunctiva, Conjunctiva Average (±SD), Hr 8, one 25 μL instillation): 1660 ng/g
concentration at 24 h [1, 9]: 598 ng/g
concentration at 3 day [1, 10]: 176 ng/g
concentration at 8 day [1, 10]: 284 ng/g
concentration at 14 day ([1]; cornea, Cornea Average (±SD), Day 14, one 25 μL instillation): 12.2 ng/g
concentration at 21 day ([1]; cornea, Cornea Average (±SD), Day 21, one 25 μL instillation): 8.14 ng/g
concentration at 8 h ([1]; cornea, Cornea Average (±SD), Hr 8, one 25 μL instillation): 560 ng/g
concentration at 24 h [1, 10]: 260 ng/g
concentration at 14 day ([1]; iris/ciliary body homogenate, Iris/Ciliary Body Homog., Day 14, per eye, one 25 μL instillation, LOQ 0.2 ng/mL): 0.239 ng/mL
concentration at 8 h ([1]; iris/ciliary body homogenate, Iris/Ciliary Body Homog., Hr 8, per eye, one 25 μL instillation, LOQ 0.2 ng/mL): 30.2 ng/mL
concentration at 3 day [1, 11]: 9.72 ng/g
concentration at 8 day [1, 11]: 8.15 ng/g
concentration at 14 day ([1]; iris/ciliary body, Iris/Ciliary Body Average (±SD), Day 14, one 25 μL instillation): 1.47 ng/g
concentration at 21 day ([1]; iris/ciliary body, Iris/Ciliary Body Average (±SD), Day 21, one 25 μL instillation): 3.88 ng/g
concentration at 8 h ([1]; iris/ciliary body, Iris/Ciliary Body Average (±SD), Hr 8, one 25 μL instillation): 123 ng/g
concentration at 24 h [1, 11]: 12.3 ng/g
concentration at 14 day ([1]; iris/ciliary body, Iris/Ciliary Body Tissue, Day 14, per eye, one 25 μL instillation): 1.2 ng/g
concentration at 8 h ([1]; iris/ciliary body, Iris/Ciliary Body Tissue, Hr 8, per eye, one 25 μL instillation): 151 ng/g
Time dexamethasone was in the aqueous humor [1, 12]: at least 8 days
Time dexamethasone was in the conjunctiva, cornea, and iris/ciliary body [1, 12]: at least 21 days
concentration at 1 day ([2]; Day 1, 50 μL depot 10:72:18): 6.68 ng/mL
concentration at 3 day ([2]; Day 3, 50 μL depot 10:72:18): 6.48 ng/mL
concentration at 5 day ([2]; Day 5, 50 μL depot 10:72:18): 4.14 ng/mL
concentration at 7 day ([2]; Day 7, 50 μL depot 10:72:18): 4.08 ng/mL
concentration at 10 day ([2]; Day 10, 50 μL depot 10:72:18): 3.2 ng/mL

Structure (SMILES): COc1c(N2CCNC(C)C2)c(F)cc2c(=O)c(C(=O)O)cn(C3CC3)c12 (stereo not shown) [Gatifloxacin, gatifloxacin]
Average concentration of gatifloxacin released ([6]; 1 Hour): 38.9 µg/mL
Gatifloxacin cumulative % released, Avg ([6]; 1 Hour): 32.3%
Average concentration of gatifloxacin released ([6]; 3 Hours): 61.9 µg/mL
Gatifloxacin cumulative % released, Avg ([6]; 3 Hours): 67.5%
Average concentration of gatifloxacin released ([6]; 24 Hours): 53.4 µg/mL
Gatifloxacin cumulative % released, Avg ([6]; 24 Hours): 86.2%
Time gatifloxacin was released in vitro ([6]; 40 mL saline at 40° C.): at least 24 hours

Structure (SMILES): C[C@]12C=CC(=O)C=C1CC[C@@H]1[C@@H]2[C@@H](O)C[C@@]2(C)[C@H]1CC[C@]2(O)C(=O)CO [Prednisolone, prednisolone]
Prednisolone cumulative % released, Avg ([7]; Day 0, Avg of 5A to 5F): 0%
Average concentration of prednisolone released ([7]; Day 1): 32.6 µg/mL
Amount of prednisolone released, Avg ([7]; Day 1, Avg of 5A to 5F): 1630.3 µg
Average concentration of prednisolone released ([7]; Day 2): 39.4 µg/mL
Amount of prednisolone released, Avg ([7]; Day 2, Avg of 5A to 5F): 1153.1 µg
Average concentration of prednisolone released ([7]; Day 3): 38.1 µg/mL
Amount of prednisolone released, Avg ([7]; Day 3, Avg of 5A to 5F): 922.4 µg
Average concentration of prednisolone released ([7]; Day 4): 30.6 µg/mL
Amount of prednisolone released, Avg ([7]; Day 4, Avg of 5A to 5F): 577.5 µg
Average concentration of prednisolone released ([7]; Day 5): 19.6 µg/mL
Amount of prednisolone released, Avg ([7]; Day 5, Avg of 5A to 5F): 72.3 µg

Second part, led by results:

Time diclofenac was detected in the rabbit tear film [3]: ≥ 7 days
Structure (SMILES): O=C(O)Cc1ccccc1Nc1c(Cl)cccc1Cl [diclofenac, diclofenac acid]

Time vitamin E acetate was present in the tears of rabbit eyes [5]: at least 12 days
Structure (SMILES): CC(=O)Oc1c(C)c(C)c2c(c1C)CC[C@@](C)(CCC[C@H](C)CCC[C@H](C)CCCC(C)C)O2 [Vitamin E acetate, [(2R)-2,5,7,8-tetramethyl-2-[(4R,8R)-4,8,12-trimethyltridecyl]chroman-6-yl]acetate]
Vitamin E acetate in aqueous humor samples [4]: not observed; also recorded: No detectable
